The values that follow come from patent US20230219904A1 (SYNGENTA CROP PROTECTION AG, priority 2020, published 2023).

Common to all, as to assay type: in vivo
Assay [1] relates to Echinochloa crus-galh (ECHCG). Description: Post-emergence herbicidal glasshouse test (Table B1). The note with it: evaluated after 13 days. The gist of the method:
(§1)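 Glasshouse pot test: compounds sprayed pre-emergence (day 1) or post-emergence (day 8) at 500 g/h unless stated. Evaluation at 13 days as percentage damage, reported on a five-point scale where 5 means 80-100%.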

The test system of assay [2] is Ipomoea hederacea (IPOHE). Described as above. The settings on record: evaluated after 13 days. The method, boiled down:
as §1

Assay [3] deals with Setaria faberi (SETFA). The assay is described as above. The settings on record: evaluated after 13 days. The gist of the method: as §1
Assay [4] concerns Abutilon theophrasti (ABUTH). Described as above. The note with it: evaluated after 13 days. The gist of the method:
as §1

The subject of assay [5] is Amaranthus retoflexus (AMARE). The assay is described as above. The settings on record: evaluated after 13 days. The gist of the method: as §1
For assay [6], the system named is Echinochloa crus-galh (ECHCG). Description: Pre-emergence herbicidal glasshouse test (Table B1). The note with it: evaluated after 13 days. The gist of the method:
as §1

The subject of assay [7] is Ipomoea hederacea (IPOHE). The assay is described as above. The settings on record: evaluated after 13 days. The method, boiled down:
as §1

The subject of assay [8] is Setaria faberi (SETFA). The description is as above. The note with it: evaluated after 13 days. The gist of the method:
as §1

Assay [9] concerns Abutilon theophrasti (ABUTH). Described as above. The settings on record: evaluated after 13 days. The gist of the method:
as §1

Assay [10] concerns Amaranthus retoflexus (AMARE). The assay is described as above. The note with it: evaluated after 13 days. The method, boiled down: as §1
Assay [11] relates to ECHCG (Echinochloa crus-galli). Description: Comparative test, PRE application (Table B2). The note with it: evaluated after 14 days. On the procedure: (§2) TABLE B2—COMPARATIVE TEST
(§3) Seeds of test species were sown in standard soil in pots. After cultivation for one day under controlled conditions in a glasshouse (at 24/16° C., day/night; 14 hours light; 65% humidity), the plants were sprayed with an aqueous spray solution derived from the formulation of the technical active ingredient in 0.6 ml acetone and 45 ml formulation solution containing 10.6% Emulsogen EL (Registry number 61791-12-6), 42.2% N-methyl pyrrolidone, 42.2% dipropylene glycol monomethyl ether (CAS RN 34590-94-8) and 0.2% X-77 (CAS RN 11097-66-8). The test plants were then grown in a glasshouse under controlled conditions in a glasshouse (at 24/16° C., day/night; 14 hours light; 65% humidity) and watered twice daily. After 14 days, the test was evaluated (100=total damage to plant; 0=no damage to plant).
(§4) Test species: ABUTH (Abutilon theophrasti); BRO′I′L (Bromus tectorum); ECHCG (Echinochloa crus-galli); SINAR (Sinapis arvensis).

The test system of assay [12] is ABUTH (Abutilon theophrasti). Description: Comparative test, PRE application (Table B2). The settings on record: evaluated after 14 days. On the procedure: as §2, §3, §4
The next assay deals with BROTE (Bromus tectorum). In words: Comparative test, PRE application (Table B2). The settings on record: evaluated after 14 days. On the procedure:
as §2, §3, §4

The subject of another assay is SINAR (Sinapis arvensis). In words: Comparative test, PRE application (Table B2). The settings on record: evaluated after 14 days. The protocol:
as §2, §3, §4

Turning to `Cn1nnnc1NC(=O)c1ccc(OC(F)(F)F)c(NC(=O)c2ccccn2)c1Cl` [Compound 1.012, N-[2-chloro-3-[(1-methyltetrazol-5-yl)carbamoyl]-6-(trifluoromethoxy)phenyl]pyridine-2-carboxamide], in [1] (applied at 125 g/ha), the “POST Application ECHCG, percentage damage on five-point scale” value was 3 (3=40-59%). Besides, the “POST Application IPOHE, percentage damage on five-point scale” value in assay [2] (applied at 125 g/ha) is on record as 4 (4=60-79%). The “POST Application SETFA, percentage damage on five-point scale” value in the assay with Setaria faberi (SETFA) [3] (applied at 125 g/ha) is 4 (4=60-79%). Further, the “POST Application ABUTH, percentage damage on five-point scale” value in [4] (applied at 125 g/ha) is recorded as 4 (4=60-79%). In [5] (applied at 125 g/ha), the “POST Application AMARE, percentage damage on five-point scale” value was 4 (4=60-79%). The “PRE Application ECHCG, percentage damage on five-point scale” value (shortened to “PRE Application ECHCG, percentage damage”) in assay [6] (applied at 125 g/ha) was 5 (5=80-100%). In addition, in [7] (applied at 125 g/ha), the “PRE Application IPOHE, percentage damage on five-point scale” value (from here on “PRE Application IPOHE, percentage damage”) was 4 (4=60-79%). Moreover, the “PRE Application SETFA, percentage damage on five-point scale” value (“PRE Application SETFA, percentage damage” for short) with Setaria faberi (SETFA) [8] (applied at 125 g/ha) is 5 (5=80-100%). Also, in assay [9] (applied at 125 g/ha), the “PRE Application ABUTH, percentage damage on five-point scale” value (“PRE Application ABUTH, percentage damage” for short) is on record as 5 (5=80-100%). Also, the “PRE Application AMARE, percentage damage on five-point scale” value (“PRE Application AMARE, percentage damage” for short) in assay [10] (applied at 125 g/ha) is given as 5 (5=80-100%). The “damage to plant ECHCG (100=total damage to plant; 0=no damage to plant)” value is 10 in assay [11] (30 g/ha), 30 in [11] (130 g/ha) and 30 in [11] (250 g/ha). Further, the “damage to plant ABUTH (100=total damage to plant; 0=no damage to plant)” value amounted to 0 in [12] (30 g/ha), 0 in assay [12] (130 g/ha) and 10 in assay [12] (250 g/ha). Also, the “damage to plant BROTE (100=total damage to plant; 0=no damage to plant)” value in the assay on BROTE (Bromus tectorum) (30 g/ha) worked out at 0; in the assay on BROTE (Bromus tectorum) (130 g/ha), 0; with BROTE (Bromus tectorum) (250 g/ha), 70. Also, the “damage to plant SINAR (100=total damage to plant; 0=no damage to plant)” value in the assay on SINAR (Sinapis arvensis) (30 g/ha) stood at 0; with SINAR (Sinapis arvensis) (130 g/ha), 70; with SINAR (Sinapis arvensis) (250 g/ha), 80.

As for `CCC(=O)Nc1c(OC(F)(F)F)ccc(C(=O)Nc2nnnn2C)c1Cl` [Compound 1.007, 2-chloro-N-(1-methyltetrazol-5-yl)-3-(propanoylamino)-4-(trifluoromethoxy)benzamide], in [1] (applied at 125 g/ha), the “POST Application ECHCG, percentage damage on five-point scale” value was 5 (5=80-100%). In addition, the “POST Application IPOHE, percentage damage on five-point scale” value in assay [2] (applied at 125 g/ha) is on record as 4 (4=60-79%). Also, the “POST Application SETFA, percentage damage on five-point scale” value with Setaria faberi (SETFA) [3] (applied at 125 g/ha) was 5 (5=80-100%). Moreover, the “POST Application AMARE, percentage damage on five-point scale” value in assay [5] (applied at 125 g/ha) is recorded as 5 (5=80-100%). Also, the “PRE Application ECHCG, percentage damage” value in assay [6] (applied at 125 g/ha) was 5 (5=80-100%). Moreover, the “PRE Application IPOHE, percentage damage” value in assay [7] (applied at 125 g/ha) is reported as 5 (5=80-100%). For the same compound, the “PRE Application SETFA, percentage damage” value in the assay with Setaria faberi (SETFA) [8] (applied at 125 g/ha) is 5 (5=80-100%). In addition, the “PRE Application ABUTH, percentage damage” value in assay [9] (applied at 125 g/ha) is on record as 5 (5=80-100%). In addition, in [10] (applied at 125 g/ha), the “PRE Application AMARE, percentage damage” value is on record as 5 (5=80-100%). The “damage to plant ECHCG (100=total damage to plant; 0=no damage to plant)” value in assay [11] (30 g/ha) is recorded as 20; in assay [11] (130 g/ha) it was 70; in [11] (250 g/ha), 90. The “damage to plant ABUTH (100=total damage to plant; 0=no damage to plant)” value is reported as 0 in assay [12] (30 g/ha), 60 in [12] (130 g/ha) and 90 in assay [12] (250 g/ha). For the same compound, the “damage to plant BROTE (100=total damage to plant; 0=no damage to plant)” value in the assay with BROTE (Bromus tectorum) (30 g/ha) was 0; in the assay with BROTE (Bromus tectorum) (130 g/ha) it was 0; with BROTE (Bromus tectorum) (250 g/ha), 20. For the same compound, the “damage to plant SINAR (100=total damage to plant; 0=no damage to plant)” value is recorded as 10 with SINAR (Sinapis arvensis) (30 g/ha), 60 with SINAR (Sinapis arvensis) (130 g/ha) and 100 in the assay with SINAR (Sinapis arvensis) (250 g/ha).

On to `CC(=O)Nc1c(OC(F)(F)F)ccc(C(=O)Nc2nnnn2C)c1Cl` [Compound 1.002], for which the “POST Application ECHCG, percentage damage on five-point scale” value in [1] (applied at 500 g/h) is 5 (5=80-100%). In [2] (applied at 500 g/h), the “POST Application IPOHE, percentage damage on five-point scale” value is given as 5 (5=80-100%). Besides, the “POST Application SETFA, percentage damage on five-point scale” value in the assay with Setaria faberi (SETFA) [3] (applied at 500 g/h) is on record as 5 (5=80-100%). Moreover, the “POST Application ABUTH, percentage damage on five-point scale” value in [4] (applied at 500 g/h) was 5 (5=80-100%). The “POST Application AMARE, percentage damage on five-point scale” value in assay [5] (applied at 500 g/h) is given as 5 (5=80-100%). Moreover, in assay [6] (applied at 500 g/h), the “PRE Application ECHCG, percentage damage” value is reported as 5 (5=80-100%). For the same compound, the “PRE Application IPOHE, percentage damage” value in assay [7] (applied) is recorded as 1 (1=0-19%). For the same compound, the “PRE Application SETFA, percentage damage” value in the assay with Setaria faberi (SETFA) [8] (applied at 500 g/h) is 2 (2=20-39%). Moreover, the “PRE Application ABUTH, percentage damage” value in assay [9] (applied at 500 g/h) is 5 (5=80-100%). Further, the “PRE Application AMARE, percentage damage” value in [10] (applied at 500 g/h) is on record as 5 (5=80-100%). Besides, the “damage to plant ECHCG (100=total damage to plant; 0=no damage to plant)” value in assay [11] (30 g/ha) amounted to 20; in [11] (130 g/ha), 30; in assay [11] (250 g/ha) it was 80. For the same compound, the “damage to plant ABUTH (100=total damage to plant; 0=no damage to plant)” value came out at 0 in assay [12] (30 g/ha), 10 in assay [12] (130 g/ha) and 80 in [12] (250 g/ha). For the same compound, the “damage to plant BROTE (100=total damage to plant; 0=no damage to plant)” value is on record as 0 with BROTE (Bromus tectorum) (30 g/ha), 10 in the assay on BROTE (Bromus tectorum) (130 g/ha) and 70 with BROTE (Bromus tectorum) (250 g/ha). For the same compound, the “damage to plant SINAR (100=total damage to plant; 0=no damage to plant)” value in the assay on SINAR (Sinapis arvensis) (30 g/ha) is given as 10; in the assay with SINAR (Sinapis arvensis) (130 g/ha), 30; with SINAR (Sinapis arvensis) (250 g/ha), 80.
